# Assay results from patent US7544821B2, “α-Ketol unsaturated fatty acid derivative and plant growth regulating agent using same” (Shiseido Company, Ltd., priority 2004, dated 2009).
# Read-outs that look alike come from different tables or passages of the source.
# Assays:
# [1] = tested on: morning glory (variety: murasaki); experiment: Activity in increasing flower budding of morning glory (spray, dark treatment, flower buds counted on the 14th day); type: in vivo
# Protocol: Seeds of morning glory (variety: murasaki) (9 g) were subjected to concentrated sulfuric acid treatment for 20 minutes, and then allowed to stand under water flow overnight.
# Subsequently, the seeds were placed on wet sea sand such that the emerging sites of the roots were directed upward for 24 hours, to thereby produce roots. The seeds having roots were planted in sea sand at a position 1 cm below the surface of the sand, and then cultured under continuous light irradiation (for about five days).
# The entire plant bodies of the morning glory having leaves produced through this culture were transferred into a culture solution KNO3(250 mg), NH4NO3 (250 mg), KH2PO4 (250 mg), MgSO4.7H2O (250 mg), MnSO4.4H2O (1 mg), Fe-citrate n-hydrate (6 mg), H3BO3 (2 mg), CuSO4.5H2O (0.1 mg), ZeSO4.7H2O (0.2 mg), Na2MoO4.2H2O (0.2 mg), Ca(H2PO4)2.2H2O (250 mg) in distilled water (1,000 mL)].
# Water or a 0.01, 0.1, 1 or 100 μM specific α-ketol fatty acid (1A) aqueous solution was sprayed to the cultured system in an amount of 0.1 mL/plant, then the plants were treated by darkness (for 13.5 hours).
# Thereafter, the morning glory was grown under continuous light irradiation at 25° C. for 14 days, and on the 14th day the number of the flower buds was measured.
# The results of eight specimens of morning glory were averaged.
# [2] = Evaluation of stability: decomposition over time of the diluted aqueous solution, analyzed by HPLC; type: physicochemical; settings: 16 mM ethanol solution diluted by water 30-fold, extended standing, HPLC (FIG. 3)
# Protocol: The stability of the specific α-ketol fatty acid derivative (1A) was evaluated as follows. A 16 mM ethanol solution of the derivative (1A) was diluted by water 30-fold. This diluted solution was allowed to stand for an extended period at each of the temperatures of 4° C., 25° C. and 50° C. The extent of decomposition over time was analyzed by HPLC (column: CAPCELL PAK C-18 UG120, 4.6×250 mm, solvent: 50% acetonitrile+0.1% trifluoroacetic acid, flow rate: 1 ml/min, wavelength: 210 nm). For comparison, a solution prepared by similarly diluting the specific α-ketol fatty acid derivative (2A) was allowed to stand for an extended period at each of 25° C. and 50° C. The extent of decomposition was similarly investigated.
# [3] = tested on: morning glory (variety: murasaki); settings: from Japanese Patent Publication (A) No. 11-29410; cited from earlier work
SMILES,optimum concentration relative to the optimum concentration of (2A) ([1]; 1 μM versus 100 μM),"number of flower buds formed, increase ([1]; 0.01-100 μM aqueous solution sprayed 0.1 mL/plant, darkness 13.5 hours, counted on 14th day, average of eight specimens, water 1.25 buds/plant (FIG. 2)) [%]","optimum concentration for flower bud formation ([1]; morning glory, sprayed aqueous solution, FIG. 2) [µM]",stability at 4° C. compared with 25° C. and 50° C. ([2]; 4° C.),stability compared with (2A) ([2]; 25° C.),stability compared with (2A) ([2]; 50° C.),optimum concentration for flower bud formation [3] [µM]
"CCC(O)C(O)C/C=C\CC(=O)C(O)CCCCCCCC(=O)O (stereo not shown) [compound (1A), 9,15,16-trihydroxy-10-oxo-12(Z)-octadecenoic acid]",1/100,≥ 200,1,far superior in stability,superior in stability,superior in stability,–
"CC/C=C\C/C=C\CC(=O)C(O)CCCCCCCC(=O)O (stereo not shown) [compound (2A), 9-hydroxy-10-oxo-12(Z),15(Z)-octadecadienoic acid]",–,–,–,–,–,–,100
